# Laboratory results as given in patent publication US12226412B2, “Heteroaryl-ketone fused azadecalin glucocorticoid receptor modulators” (Corcept Therapeutics, Inc., priority 2012, dated 2025).
# Like-named read-outs stand apart in the source and are kept apart here.
# Assays:
# human recombinant GR = biological target: T1, human recombinant GR (Homo sapiens, UniProt P04150); test: Human glucocorticoid receptor (GR) fluorescence polarisation (FP) binding assay
# T1 construct: purchased PanVera P2812
# T1 sequence (P04150 1-777): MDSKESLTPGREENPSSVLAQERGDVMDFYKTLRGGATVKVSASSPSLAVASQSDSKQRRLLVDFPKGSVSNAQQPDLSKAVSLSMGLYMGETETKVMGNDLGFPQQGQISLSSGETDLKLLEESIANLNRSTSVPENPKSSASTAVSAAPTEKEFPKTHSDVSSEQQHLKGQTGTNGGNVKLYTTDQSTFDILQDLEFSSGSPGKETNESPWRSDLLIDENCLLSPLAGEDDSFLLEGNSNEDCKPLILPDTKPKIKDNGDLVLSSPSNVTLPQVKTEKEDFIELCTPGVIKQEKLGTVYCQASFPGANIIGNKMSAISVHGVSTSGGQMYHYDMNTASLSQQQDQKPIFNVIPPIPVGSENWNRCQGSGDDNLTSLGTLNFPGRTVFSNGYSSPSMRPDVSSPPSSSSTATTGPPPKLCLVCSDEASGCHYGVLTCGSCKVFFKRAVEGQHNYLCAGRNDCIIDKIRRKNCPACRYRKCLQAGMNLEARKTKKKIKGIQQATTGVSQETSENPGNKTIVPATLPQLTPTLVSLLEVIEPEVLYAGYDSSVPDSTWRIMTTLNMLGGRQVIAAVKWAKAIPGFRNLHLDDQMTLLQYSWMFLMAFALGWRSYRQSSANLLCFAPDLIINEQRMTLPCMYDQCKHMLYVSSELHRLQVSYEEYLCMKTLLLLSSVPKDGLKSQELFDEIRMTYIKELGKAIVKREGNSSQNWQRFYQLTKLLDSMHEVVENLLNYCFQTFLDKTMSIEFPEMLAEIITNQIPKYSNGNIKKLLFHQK
# Method in brief: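 Competition fluorescence polarisation: 0.5 nM GS Red labelled glucocorticoid and 1 nM recombinant human GR with 8-point half-log compound series, 1% DMSO, 4 h room temperature, potassium phosphate pH 7.4 buffer with molybdate, EDTA, DTT. Affinity derived from the drop in polarisation, normalised to blank wells.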
# [1] = tested on: induction of TAT by dexamethasone in HepG2 cells; test: HepG2 tyrosine aminotransferase (TAT) assay; format: cell-based, human
# [2] = human recombinant GR, fluorescence polarisation binding assay, read-out: GR binding
# [3] = HepG2 cells, challenge of 100 nM dexamethasone, Ki from IC50 by Cheng and Prusoff equation
SMILES,Ki (human recombinant GR; [2]) [nM],Ki (human recombinant GR) [nM],Ki [1] [nM],"Ki [1, 3] [nM]"
"O=C(c1ccccn1)[C@]12Cc3cnn(-c4ccc(F)cc4)c3C=C1CCN(S(=O)(=O)c1ccc(C(F)(F)F)c(F)c1)C2 [Example 11AT, (R)-(6-((3-fluoro-4-(trifluoromethyl)phenyl)sulfonyl)-1-(4-fluorophenyl)-4,4a,5,6,7,8-hexahydro-1H-pyrazolo[3,4-g]isoquinolin-4a-yl)(pyridin-2-yl)methanone]",–,< 0.5,< 20,–
"Cc1ccnc(C(=O)[C@]23Cc4cnn(-c5ccc(F)cc5)c4C=C2CCN(S(=O)(=O)c2cc(C(F)(F)F)ccn2)C3)c1 [Example 11BC, (R)-(1-(4-fluorophenyl)-6-((4-(trifluoromethyl)pyridin-2-yl)sulfonyl)-4,4a,5,6,7,8-hexahydro-1H-pyrazolo[3,4-g]isoquinolin-4a-yl)(4-methylpyridin-2-yl)methanone]",< 0.5,–,–,< 20
"CC(C)n1ncc(S(=O)(=O)N2CCC3=Cc4c(cnn4-c4ccc(F)cc4)C[C@]3(C(=O)c3ccccn3)C2)n1 [Example 11CT, (R)-(1-(4-fluorophenyl)-6-((2-isopropyl-2H-1,2,3-triazol-4-yl)sulfonyl)-4,4a,5,6,7,8-hexahydro-1H-pyrazolo[3,4-g]isoquinolin-4a-yl)(pyridin-2-yl)methanone]",< 0.5,–,–,< 20
"COCc1cccc(S(=O)(=O)N2CCC3=Cc4c(cnn4-c4ccc(F)cc4)C[C@]3(C(=O)c3ccccn3)C2)c1 [Example 11AA, (R)-(1-(4-fluorophenyl)-6-((3-(methoxymethyl)phenyl)sulfonyl)-4,4a,5,6,7,8-hexahydro-1H-pyrazolo[3,4-g]isoquinolin-4a-yl)(pyridin-2-yl)methanone]",< 0.5,–,–,20 to 100
"Cc1ccnc(C(=O)[C@]23Cc4cnn(-c5ccc(F)cc5)c4C=C2CCN(S(=O)(=O)c2ccc(F)c(F)c2)C3)c1 [Example 11U, (R)-(6-((3,4-difluorophenyl)sulfonyl)-1-(4-fluorophenyl)-4,4a,5,6,7,8-hexahydro-1H-pyrazolo[3,4-g]isoquinolin-4a-yl)(4-methylpyridin-2-yl)methanone]",< 0.5,–,–,< 20
"COc1ccc(S(=O)(=O)N2CCC3=Cc4c(cnn4-c4ccc(F)cc4)C[C@]3(C(=O)c3ccccn3)C2)cc1C [Example 11B, (R)-(1-(4-fluorophenyl)-6-((4-methoxy-3-methylphenyl)sulfonyl)-4,4a,5,6,7,8-hexahydro-1H-pyrazolo[3,4-g]isoquinolin-4a-yl)(pyridin-2-yl)methanone]",< 0.5,–,–,< 20
"Cc1ccnc(C(=O)[C@]23Cc4cnn(-c5ccc(F)cc5)c4C=C2CCN(S(=O)(=O)c2cn[nH]c2C)C3)c1 [Example 11BD, (R)-(1-(4-fluorophenyl)-6-((5-methyl-1H-pyrazol-4-yl)sulfonyl)-4,4a,5,6,7,8-hexahydro-1H-pyrazolo[3,4-g]isoquinolin-4a-yl)(4-methylpyridin-2-yl)methanone]",< 0.5,–,–,20 to 100
"Cc1n[nH]c(C)c1S(=O)(=O)N1CCC2=Cc3c(cnn3-c3ccc(F)cc3)C[C@]2(C(=O)c2cc(C(F)(F)F)ccn2)C1 [Example 2V, (R)-(6-((3,5-dimethyl-1H-pyrazol-4-yl)sulfonyl)-1-(4-fluorophenyl)-4,4a,5,6,7,8-hexahydro-1H-pyrazolo[3,4-g]isoquinolin-4a-yl)(4-(trifluoromethyl)pyridin-2-yl)methanone]",> 1,–,–,20 to 100
"O=C(c1ccccn1)[C@]12Cc3cnn(-c4ccc(F)cc4)c3C=C1CCN(S(=O)(=O)c1ccc(Cl)c(F)c1)C2 [Example 2H, (R)-(6-((4-chloro-3-fluorophenyl)sulfonyl)-1-(4-fluorophenyl)-4,4a,5,6,7,8-hexahydro-1H-pyrazolo[3,4-g]isoquinolin-4a-yl)(pyridin-2-yl)methanone]",< 0.5,–,–,< 20
"Cc1cccc(S(=O)(=O)N2CCC3=Cc4c(cnn4-c4ccc(F)cc4)C[C@]3(C(=O)c3ncco3)C2)c1 [Example 1I, (R)-(1-(4-fluorophenyl)-6-(m-tolylsulfonyl)-4,4a,5,6,7,8-hexahydro-1H-pyrazolo[3,4-g]isoquinolin-4a-yl)(oxazol-2-yl)methanone]",< 0.5,–,–,20 to 100
"CCc1ccnc(C(=O)[C@]23Cc4cnn(-c5ccc(F)cc5)c4C=C2CCN(S(=O)(=O)c2cc(F)c(F)c(F)c2)C3)c1 [Example 1L, (R)-(4-ethylpyridin-2-yl)(1-(4-fluorophenyl)-6-((3,4,5-trifluorophenyl)sulfonyl)-4,4a,5,6,7,8-hexahydro-1H-pyrazolo[3,4-g]isoquinolin-4a-yl)methanone]",< 0.5,–,–,< 20
"CCn1cc(S(=O)(=O)N2CCC3=Cc4c(cnn4-c4ccc(F)cc4)C[C@]3(C(=O)c3ccccn3)C2)nn1 [Example 11CJ, (R)-(6-((1-ethyl-1H-1,2,3-triazol-4-yl)sulfonyl)-1-(4-fluorophenyl)-4,4a,5,6,7,8-hexahydro-1H-pyrazolo[3,4-g]isoquinolin-4a-yl)(pyridin-2-yl)methanone]",< 0.5,–,–,20 to 100
"Cc1ccc(S(=O)(=O)N2CCC3=Cc4c(cnn4-c4ccc(F)cc4)C[C@]3(C(=O)c3ccccn3)C2)cc1F [Example 2J, (R)-(6-((3-fluoro-4-methylphenyl)sulfonyl)-1-(4-fluorophenyl)-4,4a,5,6,7,8-hexahydro-1H-pyrazolo[3,4-g]isoquinolin-4a-yl)(pyridin-2-yl)methanone]",< 0.5,–,–,< 20
"CCCn1ncc(S(=O)(=O)N2CCC3=Cc4c(cnn4-c4ccc(F)cc4)C[C@]3(C(=O)c3ccccn3)C2)n1 [Example 11CN, (R)-(1-(4-fluorophenyl)-6-((2-propyl-2H-1,2,3-triazol-4-yl)sulfonyl)-4,4a,5,6,7,8-hexahydro-1H-pyrazolo[3,4-g]isoquinolin-4a-yl)(pyridin-2-yl)methanone]",< 0.5,–,–,< 20
"Cc1ccnc(C(=O)[C@]23Cc4cnn(-c5ccc(F)cc5)c4C=C2CCN(S(=O)(=O)c2cc(F)c(F)c(F)c2)C3)c1 [Example 11X, (R)-(1-(4-fluorophenyl)-6-((3,4,5-trifluorophenyl)sulfonyl)-4,4a,5,6,7,8-hexahydro-1H-pyrazolo[3,4-g]isoquinolin-4a-yl)(4-methylpyridin-2-yl)methanone]",< 0.5,–,–,< 20

# The next lines start with results.
Ki (human recombinant GR; [2]) [nM],SMILES,Ki (human recombinant GR) [nM],Ki [1] [nM],"Ki [1, 3] [nM]"
0.5 to 1,"Cc1cnc(C(=O)[C@]23Cc4cnn(-c5ccc(F)cc5)c4C=C2CCN(S(=O)(=O)c2ccc(Cl)c(F)c2)C3)s1 [Example 12R, (R)-(6-((4-chloro-3-fluorophenyl)sulfonyl)-1-(4-fluorophenyl)-4,4a,5,6,7,8-hexahydro-1H-pyrazolo[3,4-g]isoquinolin-4a-yl)(5-methylthiazol-2-yl)methanone]",–,–,< 20
< 0.5,"CCn1cc(S(=O)(=O)N2CCC3=Cc4c(cnn4-c4ccc(F)cc4)C[C@]3(C(=O)c3nccs3)C2)cn1 [Example 12X, (R)-(6-((1-ethyl-1H-pyrazol-4-yl)sulfonyl)-1-(4-fluorophenyl)-4,4a,5,6,7,8-hexahydro-1H-pyrazolo[3,4-g]isoquinolin-4a-yl)(thiazol-2-yl)methanone]",–,–,20 to 100
< 0.5,"O=C(c1nccs1)[C@]12Cc3cnn(-c4ccc(F)cc4)c3C=C1CCN(S(=O)(=O)c1cc(F)c(F)c(F)c1)C2 [Example 12J, (R)-(1-(4-fluorophenyl)-6-((3,4,5-trifluorophenyl)sulfonyl)-4,4a,5,6,7,8-hexahydro-1H-pyrazolo[3,4-g]isoquinolin-4a-yl)(thiazol-2-yl)methanone]",–,–,20 to 100
< 0.5,"O=C(c1ccccn1)[C@]12Cc3cnn(-c4ccc(F)c(F)c4)c3C=C1CCN(S(=O)(=O)c1ccc(Cl)c(Cl)c1)C2 [Example 15C, (R)-(6-((3,4-dichlorophenyl)sulfonyl)-1-(3,4-difluorophenyl)-4,4a,5,6,7,8-hexahydro-1H-pyrazolo[3,4-g]isoquinolin-4a-yl)(pyridin-2-yl)methanone]",–,–,20 to 100
< 0.5,"Cc1ccc(S(=O)(=O)N2CCC3=Cc4c(cnn4-c4ccc(F)cc4)C[C@]3(C(=O)c3nccs3)C2)cc1F [Example 12C, (R)-(6-((3-fluoro-4-methylphenyl)sulfonyl)-1-(4-fluorophenyl)-4,4a,5,6,7,8-hexahydro-1H-pyrazolo[3,4-g]isoquinolin-4a-yl)(thiazol-2-yl)methanone]",–,–,20 to 100
0.5 to 1,"Cc1cnc(C(=O)[C@]23Cc4cnn(-c5ccc(F)cc5)c4C=C2CCN(S(=O)(=O)c2ccnn2C)C3)s1 [Example 12V, (R)-(1-(4-fluorophenyl)-6-((1-methyl-1H-pyrazol-5-yl)sulfonyl)-4,4a,5,6,7,8-hexahydro-1H-pyrazolo[3,4-g]isoquinolin-4a-yl)(5-methylthiazol-2-yl)methanone]",–,–,20 to 100
